Test results taken from the supplement of paper PMC10307832.

Experiments:
Test in all cases: relative viability (nuclei count vs DMSO), 5 days (fraction); higher = more cells survive
NCI-H358 = test system: NCI-H358
Method in brief: (§1)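 Relative viability was taken as the ratio of nuclei in treated wells to nuclei in vehicle wells. Lung cancer cell lines in 1536-well plates received compounds by pin tool one day after seeding, either one drug alone or a fixed anchor-drug dose plus five library-drug doses (not always all listed) in √10 steps. Nuclei were counted on 4× images after 5 days of treatment, and values are medians of duplicate plates.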

NCI-H1915 = test system: NCI-H1915
Method in brief: as §1

COR-L 105 = test system: COR-L 105
Method in brief: as §1

NCI-H1793 = test system: NCI-H1793
Method in brief: as §1

NCI-H2170 = test system: NCI-H2170
Method in brief: as §1

SK-MES-1 = test system: SK-MES-1
Method in brief: as §1

NCI-H520 = test system: NCI-H520
Method in brief: as §1

A-427 = test system: A-427
Method in brief: as §1

NCI-H522 = test system: NCI-H522
Method in brief: as §1

NCI-H1944 = test system: NCI-H1944
Method in brief: as §1

NCI-H2087 = test system: NCI-H2087
Method in brief: as §1

NCI-H1975 = test system: NCI-H1975
Method in brief: as §1

HCC-827 = test system: HCC-827
Method in brief: as §1

HCC-44 = test system: HCC-44
Method in brief: as §1

LOU-NH91 = test system: LOU-NH91
Method in brief: as §1

NCI-H2023 = test system: NCI-H2023
Method in brief: as §1

LXF-289 = test system: LXF-289
Method in brief: as §1

NCI-H1792 = test system: NCI-H1792
Method in brief: as §1

SW 1573 = test system: SW 1573
Method in brief: as §1

LCLC-103H = test system: LCLC-103H
Method in brief: as §1

NCI-H1993 = test system: NCI-H1993
Method in brief: as §1

SW 900 = test system: SW 900
Method in brief: as §1

H3255 = test system: H3255
Method in brief: as §1

SMILES: Cc1cn(-c2cc(NC(=O)c3ccc(C)c(Nc4nccc(-c5cccnc5)n4)c3)cc(C(F)(F)F)c2)cn1 [Nilotinib] + CC(=O)c1c(C)c2cnc(Nc3ccc(N4CCNCC4)cn3)nc2n(C2CCCC2)c1=O [Palbociclib] (partner 0.5 µM)
- relative viability (NCI-H358; first compound 0.001 µM): 0.131
- relative viability (NCI-H358; first compound 0.003162 µM): 0.131
- relative viability (NCI-H358; first compound 0.01 µM): 0.148
- relative viability (NCI-H358; first compound 0.03162 µM): 0.124
- relative viability (NCI-H358; first compound 0.1 µM): 0.127
- relative viability (NCI-H1915; first compound 0.001 µM): 0.492
- relative viability (NCI-H1915; first compound 0.003162 µM): 0.535
- relative viability (NCI-H1915; first compound 0.01 µM): 0.53
- relative viability (NCI-H1915; first compound 0.03162 µM): 0.502
- relative viability (NCI-H1915; first compound 0.1 µM): 0.475
- relative viability (COR-L 105; first compound 0.001 µM): 0.396
- relative viability (COR-L 105; first compound 0.003162 µM): 0.413
- relative viability (COR-L 105; first compound 0.01 µM): 0.28
- relative viability (COR-L 105; first compound 0.03162 µM): 0.399
- relative viability (COR-L 105; first compound 0.1 µM): 0.391
- relative viability (NCI-H1793; first compound 0.001 µM): 0.332
- relative viability (NCI-H1793; first compound 0.003162 µM): 0.352
- relative viability (NCI-H1793; first compound 0.01 µM): 0.307
- relative viability (NCI-H1793; first compound 0.03162 µM): 0.281
- relative viability (NCI-H1793; first compound 0.1 µM): 0.3
- relative viability (NCI-H2170; first compound 0.001 µM): 0.373
- relative viability (NCI-H2170; first compound 0.003162 µM): 0.474
- relative viability (NCI-H2170; first compound 0.01 µM): 0.436
- relative viability (NCI-H2170; first compound 0.03162 µM): 0.379
- relative viability (NCI-H2170; first compound 0.1 µM): 0.44
- relative viability (SK-MES-1; first compound 0.001 µM): 0.347
- relative viability (SK-MES-1; first compound 0.003162 µM): 0.298
- relative viability (SK-MES-1; first compound 0.01 µM): 0.313
- relative viability (SK-MES-1; first compound 0.03162 µM): 0.377
- relative viability (SK-MES-1; first compound 0.1 µM): 0.32
- relative viability (NCI-H520; first compound 0.001 µM): 0.21
- relative viability (NCI-H520; first compound 0.003162 µM): 0.219
- relative viability (NCI-H520; first compound 0.01 µM): 0.241
- relative viability (NCI-H520; first compound 0.03162 µM): 0.218
- relative viability (NCI-H520; first compound 0.1 µM): 0.225
- relative viability (A-427; first compound 0.001 µM): 0.51
- relative viability (A-427; first compound 0.003162 µM): 0.493
- relative viability (A-427; first compound 0.01 µM): 0.524
- relative viability (A-427; first compound 0.03162 µM): 0.552
- relative viability (A-427; first compound 0.1 µM): 0.466
- relative viability (NCI-H522; first compound 0.03162 µM): 0.819
- relative viability (NCI-H522; first compound 0.1 µM): 0.805
- relative viability (NCI-H1944; first compound 0.001 µM): 0.279
- relative viability (NCI-H1944; first compound 0.003162 µM): 0.335
- relative viability (NCI-H1944; first compound 0.01 µM): 0.372
- relative viability (NCI-H1944; first compound 0.03162 µM): 0.365
- relative viability (NCI-H1944; first compound 0.1 µM): 0.378
- relative viability (NCI-H2087; first compound 0.001 µM): 0.219
- relative viability (NCI-H2087; first compound 0.003162 µM): 0.204
- relative viability (NCI-H2087; first compound 0.01 µM): 0.213
- relative viability (NCI-H2087; first compound 0.03162 µM): 0.187
- relative viability (NCI-H2087; first compound 0.1 µM): 0.201
- relative viability (NCI-H1975; first compound 0.001 µM): 0.498
- relative viability (NCI-H1975; first compound 0.003162 µM): 0.608
- relative viability (NCI-H1975; first compound 0.01 µM): 0.653
- relative viability (NCI-H1975; first compound 0.03162 µM): 0.345
- relative viability (NCI-H1975; first compound 0.1 µM): 0.226
- relative viability (HCC-827; first compound 0.001 µM): 0.56
- relative viability (HCC-827; first compound 0.003162 µM): 0.451
- relative viability (HCC-827; first compound 0.03162 µM): 0.435
- relative viability (HCC-827; first compound 0.1 µM): 0.469
- relative viability (HCC-44; first compound 0.001 µM): 0.911
- relative viability (HCC-44; first compound 0.003162 µM): 0.933
- relative viability (HCC-44; first compound 0.01 µM): 0.927
- relative viability (HCC-44; first compound 0.1 µM): 0.931
- relative viability (LOU-NH91; first compound 0.001 µM): 0.51
- relative viability (LOU-NH91; first compound 0.003162 µM): 0.543
- relative viability (LOU-NH91; first compound 0.01 µM): 0.48
- relative viability (LOU-NH91; first compound 0.03162 µM): 0.535
- relative viability (LOU-NH91; first compound 0.1 µM): 0.586
- relative viability (NCI-H2023; first compound 0.001 µM): 0.395
- relative viability (NCI-H2023; first compound 0.003162 µM): 0.401
- relative viability (NCI-H2023; first compound 0.01 µM): 0.457
- relative viability (NCI-H2023; first compound 0.03162 µM): 0.333
- relative viability (NCI-H2023; first compound 0.1 µM): 0.419
- relative viability (LXF-289; first compound 0.001 µM): 0.673
- relative viability (LXF-289; first compound 0.003162 µM): 0.771
- relative viability (LXF-289; first compound 0.01 µM): 0.666
- relative viability (LXF-289; first compound 0.03162 µM): 0.607
- relative viability (LXF-289; first compound 0.1 µM): 0.577
- relative viability (NCI-H1792; first compound 0.001 µM): 0.582
- relative viability (NCI-H1792; first compound 0.003162 µM): 0.684
- relative viability (NCI-H1792; first compound 0.01 µM): 0.732
- relative viability (NCI-H1792; first compound 0.1 µM): 0.89
- relative viability (SW 1573; first compound 0.001 µM): 0.391
- relative viability (SW 1573; first compound 0.003162 µM): 0.408
- relative viability (SW 1573; first compound 0.01 µM): 0.363
- relative viability (SW 1573; first compound 0.03162 µM): 0.271
- relative viability (SW 1573; first compound 0.1 µM): 0.32
- relative viability (LCLC-103H; first compound 0.001 µM): 0.425
- relative viability (LCLC-103H; first compound 0.003162 µM): 0.403
- relative viability (LCLC-103H; first compound 0.01 µM): 0.46
- relative viability (LCLC-103H; first compound 0.03162 µM): 0.489
- relative viability (LCLC-103H; first compound 0.1 µM): 0.44
- relative viability (NCI-H1993; first compound 0.001 µM): 0.688
- relative viability (NCI-H1993; first compound 0.003162 µM): 0.705
- relative viability (NCI-H1993; first compound 0.01 µM): 0.762
- relative viability (NCI-H1993; first compound 0.03162 µM): 0.624
- relative viability (NCI-H1993; first compound 0.1 µM): 0.851
- relative viability (SW 900; first compound 0.003162 µM): 0.47
- relative viability (SW 900; first compound 0.01 µM): 0.524
- relative viability (SW 900; first compound 0.03162 µM): 0.455
- relative viability (SW 900; first compound 0.1 µM): 0.476
- relative viability (H3255; first compound 0.001 µM): 0.317
- relative viability (H3255; first compound 0.003162 µM): 0.286
- relative viability (H3255; first compound 0.01 µM): 0.313
- relative viability (H3255; first compound 0.03162 µM): 0.308
- relative viability (H3255; first compound 0.1 µM): 0.287
